Test results reported in patent US20250228851A1, “ALLOSTERIC INHIBITOR COMPOUNDS FOR OVERCOMING CANCER RESISTANCE” (priority 2021, published 2025).

Tests used:
[1] = test system: BV173 cells (p210-BCR-ABL); assay: XTT cell viability, BV173; assay type: cell-based, human
Protocol: FIG. 2: Effect of Compound 16 on leukemia cell lines (Jurkat, Sup-B15 and BV173). Cell viablility (CV) was determined following incubation of the 1 m cells/ml of each cell line with increasing concentration of the Compound 16 [empty vehicle (0.0 μM+IL3), 2.5, 5.0 and 10.0 μM]. CV was measured by the XTT method. The means±SD of triplicates from one representative experiment out of three performed are given.
Effect of Compound 16 on […] Jurkat (immortalized T lymphocytes derived from the peripheral blood of a child suffering from leukemia. Jurkat cells are often used to study acute T cell leukemia, T cell signaling, and the expression of various chemokine receptors in this experiment Jurkat cells are taken as control), Sup-B15 and BV173. Three Ph+ cells were used to assess the effect of Compound 16. Relevant concentration of the compound was added to seeded cells at day 1 (24 hrs) and cytotoxicity and proliferation were assessed at after 24, 48, 72, 96 and 120 h by XTT. The control was cells exposed to empty vehicle (0 μM, green line in each case), 1, 2 and 5 μM concentration of Compound 16 were administered to the three cell lines. […] The means±SD of triplicates from one representative experiment out of three performed are given. It could be concluded that though Compound 16 inhibits Ph+ Sup-B15 and BV173 are responsive towards Compound 16 with the notion that p210-BCR-ABL leukemia cells at lymphoblastic blast crisis stage are quite more sensitive than p185-BCR-ABL ALL cells at corresponding inhibitor concentration.
FIG. 6: Sensitivity of Sup-B15 (p185-BCR-ABL) compared BV173 cells (p210-BCR-ABL) towards increasing concentration of Compound 16. Ph+ cells were used to assess the effect of Compound 16. To assess the antiproliferative effect, cells were incubated with increasing concentration [0, 2, 4, 6, 8, and 10 μM] of Compound 16 and the viability was assessed using XTT. The means±SD of triplicates from one representative experiment out of three performed are given.

WT-Ba/F3 = assay: Proliferation by trypan blue exclusion, WT-Ba/F3; assay type: cell-based, murine; settings: WT-Ba/F3, 1.0, 2.0 and 5.0 μM
Protocol: • 1. Ba/F3 cells were obtained from the German Collection of Microorganisms and Cell Cultures (DSMZ, Braunschweig, Germany) and maintained in RPMI 1640 medium supplemented with 10% fetal calf serum (Invitrogen) containing 10 ng/ml of interleukin-3 (Cell Concepts, Umkirch, Germany). Ecotropic Phoenix cells and Rat-1 cells were cultured in Dulbecco's modified Eagle's medium supplemented with 10% fetal calf serum. GNF-2 (Sigma-Adrich, Steinheim, Germany) was dissolved in dimethyl sulfoxide and added at a final concentration of […]. Cell growth was assessed by dye exclusion using Trypan blue. Proliferation was assessed using the XTT proliferation kit (Roche, Mannheim, Germany), according to the manufacturer's instructions. • 2. Ba/F3: IL-3 dependent lymphatic murine pro B cell line. […]
FIGS. 4A and 4B. […] All cell lines were treated with the indicated concentrations of Compound 16 for total period of five days and proliferation was determined by trypan blue exclusion of viable cells. […] For factor-independent growth, the number of viable cells was determined at day 3 by trypan blue dye exclusion.

## COc1ccc(C(=O)N2CCN(c3cc(Nc4ccc(OC(F)(F)F)cc4)ncn3)CC2)cc1OC [Compound 16]
[1]; 2.5 μM
  cells wiped: around 100%
[1]; BV173, XTT, estimated
  IC50: ~2 µM
[1]; BV173, increasing concentration up to 10 μM
  antiproliferative response (in words): most sensitive
[1]; within 24 hours exposure
  concentration sufficient to block proliferation: 1 µM
WT-Ba/F3
  effect on proliferation (in words): without affecting the proliferation
